# Earlier results, collected in patent US20220160704A2, “COMPOSITIONS FOR OPIATE AND OPIOID PREVENTION AND REVERSAL, AND METHODS OF THEIR USE” (Torralva Medical Therapeutics LLC, priority 2018, published 2022).
# Structures can show the parent of a compound that is named as a salt. Where two headings read alike, the source gives them in different places.
# Assays:
# [1] = subcutaneous injection of 10 mg; cited from earlier work
# [2] = cited from earlier work
# [3] = cited from earlier work; remark: listed apart in the source
# [4] = cited from earlier work; remark: listed apart in the source
# [5] = cited from earlier work; remark: listed apart in the source
# [6] = in vivo; cited from earlier work
# [7] = cited from earlier work; remark: listed apart in the source
# [8] = cited from earlier work; remark: listed apart in the source
# [9] = target: T1, α-1 1A subtype (Homo sapiens, UniProt P35348); conditions: greater than Prazosin; cited from earlier work
# T1 sequence (P35348 1-466): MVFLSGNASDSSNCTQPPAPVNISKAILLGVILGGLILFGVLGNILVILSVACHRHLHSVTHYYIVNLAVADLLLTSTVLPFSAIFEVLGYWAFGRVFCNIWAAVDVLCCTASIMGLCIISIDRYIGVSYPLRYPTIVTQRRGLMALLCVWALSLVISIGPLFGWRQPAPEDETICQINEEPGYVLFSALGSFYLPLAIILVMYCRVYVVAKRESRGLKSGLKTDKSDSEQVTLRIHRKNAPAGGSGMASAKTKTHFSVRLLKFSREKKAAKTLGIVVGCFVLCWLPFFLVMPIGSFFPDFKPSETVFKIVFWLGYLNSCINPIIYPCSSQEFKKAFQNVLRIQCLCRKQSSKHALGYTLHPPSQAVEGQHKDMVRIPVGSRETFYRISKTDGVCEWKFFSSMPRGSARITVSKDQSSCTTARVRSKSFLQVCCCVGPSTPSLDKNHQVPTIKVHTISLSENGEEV
# [10] = 25° C.; cited from earlier work
# [11] = pH 7.4; cited from earlier work
compound,measurement,setting,value
CC[C@@H]1C(=O)OC[C@@H]1Cc1cncn1C [pilocarpine HCl],Salivation,[1],1 L
"1 H,5 H-Tropan-3-ol (±)-tropate [Atropine]",Dose that can produce a paradoxical bradycardia,[2]; adults,less than 0.5 mg
"COc1cc2nc(N3CCN(C(=O)C4COc5ccccc5O4)CC3)nc(N)c2cc1OC (centres unmarked) [DOXAZOSIN, 1-(4-amino-6,7-dimethoxy-2-quinazolinyl)-4-(1,4benzodioxan-2-ylcarbonyl) piperazine methanesulfonate]",Solubility in acetone,[3]; acetone,very slightly soluble
same,Solubility in dichloromethane / methylene chloride,[3],very slightly soluble
same,Solubility in dimethylformamide,[3]; dimethylformamide,soluble
same,Solubility in dimethylsulfoxide,[3]; dimethylsulfoxide,freely soluble
same,Solubility in ethanol / alcohol,[3],slightly soluble
same,Solubility in methanol,[3]; methanol,slightly soluble
same,Solubility in water,[3]; 25° C.,0.8%
same,Solubility in water,[3],slightly soluble
same,Half-life (in words),[4]; in vivo,long half-life
"COc1cc2nc(N(C)CCCNC(=O)C3CCCO3)nc(N)c2cc1OC.Cl (racemic) [ALFUZOSIN, (R,S)—N-[3-[(4-amino-6,7-dimethoxy-2-quinazolinyl)methylamino]propyl]tetrahydro-2-furancarboxamide hydrochloride]",Dizziness,"[5]; human, in vivo",6%
same,Hypotension,"[5]; human, in vivo",0.4%
same,Syncope,"[5]; human, in vivo",0.2%
same,Solubility in dichloromethane / methylene chloride,[3],practically insoluble
same,Solubility in ethanol / alcohol,[3],sparingly soluble
same,Solubility in water,[3],freely soluble
"COc1cc2nc(N3CCN(C(=O)c4ccco4)CC3)nc(N)c2cc1OC.Cl [PRAZOSIN, 1-(4-amino-6,7-dimethoxy-2-quiazolinyl)-4-(2-furoyl) piperazine]","Syncope and symptoms of hypotension, share of subjects",[5]; 1 mg BID/TID up to 20 mg total QD,6-12%
same,Crossing of the blood brain barrier,[6],ability to cross the blood brain barrier
same,Solubility in isotonic saline,[3],slightly soluble
same,Solubility in water,[3],slightly soluble
"O=C1CC[C@@]2(O)[C@H]3Cc4ccc(O)c5c4[C@@]2(CCN3CC2CC2)[C@H]1O5 [Naltrexone base anhydrous, morphinan-6-one, 17 (cyclopropylmethyl) 4,5-epoxy3,14-dihydroxy-(5a)]",Solubility in ethanol / alcohol,[3],soluble
same,Solubility in water,[3],insoluble
C[N+](C)(C)CCOC(=O)CCC(=O)OCC[N+](C)(C)C [Succinylcholine],Bradycardia,"[2]; human, in vivo",bradycardia is common in pediatric patients after an initial dose of 1.5 mg/kg
same,Storage stability of solutions,[7]; refrigeration,lose potency unless refrigerated
same,Persistence of maximum blockade,[8]; 0.3-1.1 mg/kg,about 2 minutes
same,Time to recovery after maximum blockade,[8]; 0.3-1.1 mg/kg,4 to 6 min
same,Time until neuromuscular blockade develops,[8]; 0.3-1.1 mg/kg,about 1 minute
same,Onset of effect given intramuscularly,"[8]; intramuscular, up to 3 to 4 mg/kg",2 to 3 min
C[C@H](Cc1cc2c(c(C(N)=O)c1)N(CCCO)CC2)NCCOc1ccccc1OCC(F)(F)F [SILODOSIN],Dizziness and orthostatic hypotension,"[5]; 8 mg QD, study of 897 subjects",3%
same,"Syncope, subjects affected / subjects","[5]; 8 mg QD, study of 897 subjects",1/897
same,Solubility in ethanol / alcohol,[3],freely soluble
same,Solubility in acetic acid,[3]; glacial acetic acid / acetic acid,very soluble
same,Solubility in water,[3],very slightly soluble
"CCOc1ccccc1OCCN[C@H](C)Cc1ccc(OC)c(S(N)(=O)=O)c1.Cl [Tamsulosin hydrochloride, (−)-(R)-5-[2-[[2-(o-Ethoxyphenoxy)ethyl]amino]propyl]-2-methoxybenzenesulfon-amide, monohydrochloride]",Binding affinity at the 1A subtype over other α-1 antagonists,[9],12-30 times
same,"Incidence of hypotension, syncope, vertigo",[5]; Dose 0.4-0.8 mg QD,0.2%-0.6%
same,Crossing of the blood brain barrier,[6],ability to cross the blood brain barrier
same,Half-life (in words),[4]; in vivo,long half-life
"C=CCN1CC[C@]23c4c5ccc(O)c4O[C@H]2C(=O)CC[C@@]3(O)[C@H]1C5.Cl [Naloxone hydrochloride, 17-Allyl-4,5α-epoxy-3,14-dihydroxymorphinan-6-one hydrochloride]",Solubility in chloroform,[3]; chloroform,practically insoluble
same,Solubility in dilute acids,[3]; dilute acids,soluble
same,Solubility in ethanol / alcohol,[3],slightly soluble
same,Solubility in ether,[3]; ether / ethyl ether,practically insoluble
same,Solubility in strong alkali,[3]; strong alkali,soluble
same,Solubility in water,[3],soluble
"C=CC[N+]1([C@H]2C[C@H]3[C@@H]4CC[C@H]5C[C@H](O)[C@@H](N6CCOCC6)C[C@]5(C)[C@H]4CC[C@]3(C)[C@H]2OC(C)=O)CCCC1.[Br-] [rocuronium bromide, 1-[17β-(acetyloxy)-3α-hydroxy-2β-(4-morpholinyl)-5α-androstan-16β-yl]-1-(2-propenyl)pyrroidinium bromide]",Time in which most patients have intubation completed,[8]; initial dose 0.6 mg/kg,≤ 2 min
same,Time to maximum blockade in most patients,[8]; initial dose 0.6 mg/kg,less than 3 minutes
same,"Time to neuromuscular block sufficient for intubation (80% block or greater), median (range)",[8]; initial dose 0.6 mg/kg,1 (0.4-6) minute(s)
CN1CCC[C@H]1c1cccnc1 [Nicotine],Vapor pressure,[10],5.5 Pa
same,Crossing of the blood brain barrier,[6],crosses the blood-brain barrier
same,Miscibility with water,[3]; base form,miscible with water in its base form between 60 °C and 210 °C
same,Time to reach the brain,[4]; after inhalation,10 to 20 s
same,Route of excretion,[4]; in vivo,primarily excreted in urine
"COc1cc2nc(N3CCN(C(=O)C4CCCO4)CC3)nc(N)c2cc1OC (racemic) [TERAZOSIN, (RS)-Piperazine, 1-(4-amino-6,7-dimethoxy-2-quinazolinyl)-4-[(tetra-hydro-2-furanyl)carbonyl]-, monohydrochloride, dihydrate]",Postural hypotension,[5]; trial of 600 subjects,4%
same,Syncope,[5]; trial subjects,0.6%
same,Solubility in isotonic saline,[3],freely soluble
same,Solubility in water,[3],freely soluble
same,Half-life (in words),[4]; in vivo,long half-life
"CCOC(=O)c1ncn2c1CN(C)C(=O)c1cc(F)ccc1-2 [Flumazenil, ethyl 8-fluoro-5,6-dihydro-5-methyl-6-oxo-4H-imidazo[1,5-a](1,4) benzodiazepine-3-carboxylate]",octanol: buffer partition coefficient,[11],14 to 1
same,Solubility in acidic aqueous solutions,[3]; acidic aqueous solutions,slightly soluble
same,Solubility in water,[3],insoluble
"CNC(C)C(O)c1ccccc1 (stereo not drawn) [Ephedrine, benzenemethanol α-[1-(methylamino)ethyl]-sulfate (2:1) (salt)]",Light stability,[7]; exposure to light,darkens on exposure to light
"Cl.Clc1cccc(Cl)c1NC1=NCCN1 [Clondine hydrochloride, 2-(2,6-dichlorophenylamino)-2-imidazoline hydrochloride]",Maximum effective daily dose,[2]; oral,2.4 mg
